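The concentration for 50% growth inhibition is given as GI50. The concentration for full growth arrest is given as TGI.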
Legend:
Test in all cases: NCI tumour cell line growth inhibition, 384-well format
[1] = system: 786-0 renal
[2] = system: A498 renal
[3] = system: A549 NSCLC
[4] = system: BT-549 breast
[5] = system: CAKI-1 renal
[6] = system: COLO 205 colon
[7] = system: DU-145 prostate
[8] = system: EKVX NSCLC
[9] = system: HCC-2998 colon
[10] = system: HCT-116 colon
[11] = system: HCT-15 colon
[12] = system: HOP-62 NSCLC
[13] = system: HOP-92 NSCLC
[14] = system: HS 578T breast
[15] = system: HT29 colon
[16] = system: IGROV1 ovarian
[17] = system: K-562 leukemia
[18] = system: KM12 colon
[19] = system: LOX IMVI melanoma
[20] = system: M14 melanoma
[21] = system: MCF7 breast
[22] = system: MDA-MB-231 breast
[23] = system: MDA-MB-468 breast
[24] = system: MOLT-4 leukemia
[25] = system: NCI-H226 lung
[26] = system: NCI-H23 lung
[27] = system: NCI-H322M lung
[28] = system: NCI-H522 lung
[29] = system: NCI/ADR-RES ovarian
[30] = system: OVCAR-3 ovarian
[31] = system: OVCAR-4 ovarian
[32] = system: OVCAR-8 ovarian
[33] = system: PC-3 prostate
[34] = system: RXF 393 renal
[35] = system: SF-268 CNS
[36] = system: SF-295 CNS
[37] = system: SK-MEL-2 melanoma
[38] = system: SK-MEL-28 melanoma
[39] = system: SK-MEL-5 melanoma
[40] = system: SK-OV-3 ovarian
[41] = system: SNB-19 CNS
[42] = system: SNB-75 CNS
[43] = system: SR leukemia
[44] = system: SW-620 colon
[45] = system: TK-10 renal
[46] = system: U251 glioblastoma
[47] = system: UACC-62 melanoma

With Cc1ncsc1-c1ccc(CNC(=O)[C@@H]2C[C@@H](O)CN2C(=O)[C@@H](NC(=O)C2(C#N)CC2)C(C)(C)C)cc1 the GI50 [1] was > 100 µM, the TGI [1] was > 100 µM and the GI50 [2] was > 100 µM. For the same compound, the TGI [2] was > 100 µM, the GI50 [3] was > 100 µM and the TGI [3] was > 100 µM. The GI50 [4] was > 100 µM, the TGI [4] was > 100 µM and the GI50 [5] was > 100 µM. The TGI [5] was > 100 µM, the GI50 [6] was > 100 µM and the TGI [6] was > 100 µM. The GI50 [7] was > 100 µM, the TGI [7] was > 100 µM and the GI50 [8] was > 100 µM. The TGI [8] was > 100 µM, the GI50 [9] was > 100 µM and the TGI [9] was > 100 µM. The GI50 [10] was > 100 µM, the TGI [10] was > 100 µM and the GI50 [11] was > 100 µM. For the same compound, the TGI [11] was > 100 µM, the GI50 [12] was > 100 µM and the TGI [12] was > 100 µM. For the same compound, the GI50 [13] was > 100 µM, the TGI [13] was > 100 µM and the GI50 [14] was > 100 µM. For the same compound, the TGI [14] was > 100 µM, the GI50 [15] was > 100 µM and the TGI [15] was > 100 µM. For the same compound, the GI50 [16] was > 100 µM, the TGI [16] was > 100 µM and the GI50 [17] was > 100 µM. The TGI [17] was > 100 µM, the GI50 [18] was > 100 µM and the TGI [18] was > 100 µM. For the same compound, the GI50 [19] was > 100 µM, the TGI [19] was > 100 µM and the GI50 [20] was > 100 µM. For the same compound, the TGI [20] was > 100 µM, the GI50 [21] was > 100 µM and the TGI [21] was > 100 µM. The GI50 [22] was > 100 µM, the TGI [22] was > 100 µM and the GI50 [23] was > 100 µM. The TGI [23] was > 100 µM, the GI50 [24] was > 100 µM and the TGI [24] was > 100 µM. For the same compound, the GI50 [25] was > 100 µM, the TGI [25] was > 100 µM and the GI50 [26] was > 100 µM. For the same compound, the TGI [26] was > 100 µM, the GI50 [27] was > 100 µM and the TGI [27] was > 100 µM. The GI50 [28] was > 100 µM, the TGI [28] was > 100 µM and the GI50 [29] was > 100 µM. For the same compound, the TGI [29] was > 100 µM, the GI50 [30] was > 100 µM and the TGI [30] was > 100 µM. For the same compound, the GI50 [31] was > 100 µM, the TGI [31] was > 100 µM and the GI50 [32] was > 100 µM. For the same compound, the TGI [32] was > 100 µM, the GI50 [33] was > 100 µM and the TGI [33] was > 100 µM. For the same compound, the GI50 [34] was > 100 µM, the TGI [34] was > 100 µM and the GI50 [35] was 99.7 µM. The TGI [35] was > 100 µM, the GI50 [36] was > 100 µM and the TGI [36] was > 100 µM. The GI50 [37] was > 100 µM, the TGI [37] was > 100 µM and the GI50 [38] was > 100 µM. The TGI [38] was > 100 µM, the GI50 [39] was > 100 µM and the TGI [39] was > 100 µM. For the same compound, the GI50 [40] was > 100 µM, the TGI [40] was > 100 µM and the GI50 [41] was > 100 µM. For the same compound, the TGI [41] was > 100 µM, the GI50 [42] was > 94.8 µM and the TGI [42] was > 100 µM. For the same compound, the GI50 [43] was > 100 µM, the TGI [43] was > 100 µM and the GI50 [44] was > 100 µM. The TGI [44] was > 100 µM, the GI50 [45] was > 100 µM and the TGI [45] was > 100 µM. The GI50 [46] was > 100 µM, the TGI [46] was > 100 µM and the GI50 [47] was > 100 µM. The TGI [47] was > 100 µM.
